This assay deals with human recombinant PAK1-KD protein (Homo sapiens, UniProt Q13153). The assay is described as follows: PAK1-KD (Kinase Domain) IC50 Zlyte Assay (FRET peptide substrate phosphorylation). The note with it: Z'-LYTE, Biological Example 1.
Chain of human recombinant PAK1-KD protein (Q13153 270-521 limits assumed): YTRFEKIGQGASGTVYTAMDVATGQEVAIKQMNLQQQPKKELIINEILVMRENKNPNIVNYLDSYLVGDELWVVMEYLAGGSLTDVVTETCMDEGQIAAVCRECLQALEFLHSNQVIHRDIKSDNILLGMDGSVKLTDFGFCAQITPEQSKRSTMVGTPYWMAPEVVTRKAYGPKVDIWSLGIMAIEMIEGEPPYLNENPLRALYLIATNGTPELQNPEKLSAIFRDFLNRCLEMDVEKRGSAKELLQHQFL
In the case of `Cc1cccc(-c2ccc(-c3cc4cnc(NC5COC5)nc4n(CC[C@H]4OC[C@@H](N)CO4)c3=O)c(Cl)c2)n1` [Example I-135, 8-[2-(5-amino-1,3-dioxan-2-yl)ethyl]-6-[2-chloro-4-(6-methyl-2-pyridyl)phenyl]-2-(oxetan-3-ylamino)pyrido[2,3-d]pyrimidin-7-one], the inhibition constant Ki (usually a measure of affinity in units of concentration, obtained from inhibition or displacement) worked out at 0.654 nM.

Consider `CCNc1ncc2cc(-c3ccc(-c4cccc(C)n4)cc3C)c(=O)n(CCC3CNCCO3)c2n1` (single isomer, unassigned) [Example I-115], for which the Ki is 1.4 nM.

With `Cc1cccc(-c2ccc(-c3cc4cnc(NC5COC5)nc4n(CCCC(N)=O)c3=O)c(C)c2)n1` [Example I-71, 4-[6-[2-Methyl-4-(6-methyl-2-pyridyl)phenyl]-2-(oxetan-3-ylamino)-7-oxo-pyrido[2,3-d]pyrimidin-8-yl]butanamide], the Ki worked out at 11.3 nM.

With `CCNc1ncc2cc(-c3ccc(-c4cncc(C)n4)cc3Cl)c(=O)n(CCCCC(N)=O)c2n1` [Example I-49, 5-[6-[2-Chloro-4-(6-methylpyrazin-2-yl)phenyl]-2-(ethylamino)-7-oxo-pyrido[2,3-d]pyrimidin-8-yl]pentanamide], the Ki was found to be 75.3 nM.

For the molecule `Cc1cccc(-c2ccc(-c3cc4cnc(NC(C)C)nc4n(C[C@H]4CC[C@H](N)CC4)c3=O)c(Cl)c2)n1` [Example I-32, 8-[(4-aminocyclohexyl)methyl]-6-[2-chloro-4-(6-methyl-2-pyridyl)phenyl]-2-(isopropylamino)pyrido[2,3-d]pyrimidin-7-one], the Ki worked out at 0.5 nM.

With `CNc1ncc2cc(-c3ccc(-c4csc(C5CC5)n4)cc3Cl)c(=O)n(C[C@H]3CNCCO3)c2n1` [Example I-185, 6-[2-chloro-4-(2-cyclopropylthiazol-4-yl)phenyl]-2-(methylamino)-8-[[(2R)-morpholin-2-yl]methyl]pyrido[2,3-d]pyrimidin-7-one], the Ki was found to be 47.3 nM.

Regarding `CCc1cc(-c2cncc(C)n2)ccc1-c1cc2cnc(NC)nc2n(CCOCCN)c1=O` [Example I-129, 8-[2-(2-aminoethoxy)ethyl]-6-[2-ethyl-4-(6-methylpyrazin-2-yl)phenyl]-2-(methylamino)pyrido[2,3-d]pyrimidin-7-one], the Ki was 27.5 nM.

In the case of `Cc1cccc(-c2ccc(-c3cc4cnc(NCC(F)F)nc4n(CCC4CNCCO4)c3=O)c(C)c2)n1` (racemic) [Example I-126, 2-(2,2-Difluoroethylamino)-6-[2-methyl-4-(6-methyl-2-pyridyl)phenyl]-8-(2-morpholin-2-ylethyl)pyrido[2,3-d]pyrimidin-7-one], the Ki came out at 2.5 nM.

In the case of `CCNc1ncc2cc(-c3ccc(-c4cncc(C)n4)cc3Cl)c(=O)n(CCC3CCCN3)c2n1` (single isomer, unassigned) [Example I-20], the Ki is 20.4 nM.

`CCNc1ncc2cc(-c3ccc(-c4cncc(C)n4)cc3Cl)c(=O)n(CC3C4CN(C)CC43)c2n1` (stereo not shown) [Example I-128, 6-[2-chloro-4-(6-methylpyrazin-2-yl)phenyl]-2-(ethylamino)-8-[(3-methyl-3-azabicyclo[3.1.0]hexan-6-yl)methyl]pyrido[2,3-d]pyrimidin-7-one]: the Ki came to 11.8 nM.

Turning to `CCNc1ncc2cc(-c3ccc(-c4cncc(C)n4)cc3Cl)c(=O)n(CCN3CCN(C4COC4)CC3)c2n1` [Example I-23, 6-(2-chloro-4-(6-methylpyrazin-2-yl)phenyl)-2-(ethylamino)-8-(2-(4-(oxetan-3-yl)piperazin-1-yl)ethyl)pyrido[2,3-d]pyrimidin-7(8H)-one], the Ki is 136 nM.

With `CNc1ncc2cc(-c3ccc(-c4cncc(C)n4)cc3Cl)c(=O)n(CCCCN)c2n1` [Compound I-42, 8-(4-aminobutyl)-6-[2-chloro-4-(6-methylpyrazin-2-yl)phenyl]-2-(methylamino)pyrido[2,3-d]pyrimidin-7-one], the Ki worked out at 23.2 nM.

On to `CCNc1ncc2cc(-c3ccc(-c4cncc(C)n4)cc3Cl)c(=O)n(C[C@H]3[C@@H]4CNC[C@@H]43)c2n1` [Example I-82, 8-((1R,5S,6R)-3-Azabicyclo[3.1.0]hexan-6-ylmethyl)-6-(2-chloro-4-(6-methylpyrazin-2-yl)phenyl)-2-(ethylamino)pyrido[2,3-d]pyrimidin-7(8H)-one], for which the Ki stood at 9.6 nM.

For the molecule `CNc1ncc2cc(-c3ccc(-c4cncc(C)n4)cc3Cl)c(=O)n(CC(=O)NCCN)c2n1` [Example I-156, N-(2-aminoethyl)-2-[6-[2-chloro-4-(6-methylpyrazin-2-yl)phenyl]-2-(methylamino)-7-oxo-pyrido[2,3-d]pyrimidin-8-yl]acetamide], the Ki stood at 14.4 nM.

On to `CCNc1ncc2cc(-c3ccc(-c4cccc(C)n4)cc3Cl)c(=O)n(CC(=O)N3CCOCC3)c2n1` [Example I-120, 6-[2-chloro-4-(6-methyl-2-pyridyl)phenyl]-2-(ethylamino)-8-(2-morpholino-2-oxo-ethyl)pyrido[2,3-d]pyrimidin-7-one], for which the Ki was found to be 20.8 nM.

Regarding `Cc1cccc(-c2ccc(-c3cc4cnc(NC5COC5)nc4n(C[C@H]4CNCCO4)c3=O)c(Cl)c2)n1` [Example I-159, 6-[2-Chloro-4-(6-methyl-2-pyridyl)phenyl]-8-[[(2R)-morpholin-2-yl]methyl]-2-(oxetan-3-ylamino)pyrido[2,3-d]pyrimidin-7-one], the Ki is 10.8 nM.

For `CNc1ncc2cc(-c3ccc(-c4csc(C)n4)cc3Cl)c(=O)n(C[C@@H]3CNCCO3)c2n1` [Example I-179, 6-[2-chloro-4-(2-methylthiazol-4-yl)phenyl]-2-(methylamino)-8-[[(2S)-morpholin-2-yl]methyl]pyrido[2,3-d]pyrimidin-7-one], the Ki amounted to 66.6 nM.

In the case of `CNc1ncc2cc(-c3ccc(-c4cccc(C)n4)cc3Cl)c(=O)n(CCC3CNCCO3)c2n1` (single isomer, unassigned) [Example I-125, 6-(2-chloro-4-(6-methylpyridin-2-yl)phenyl)-2-(methylamino)-8-(2-(morpholin-2-yl)ethyl)pyrido[2,3-d]pyrimidin-7(8H)-one], the Ki amounted to 4.7 nM.

In the case of `CCNc1ncc2cc(-c3ccc(-c4cccc(C)n4)cc3C)c(=O)n(CCCCO)c2n1` [Example I-73, 2-(Ethylamino)-8-(4-hydroxybutyl)-6-[2-methyl-4-(6-methyl-2-pyridyl)phenyl]pyrido[2,3-d]pyrimidin-7-one], the Ki amounted to 18.9 nM.

On to `Cc1cncc(-c2ccc(-c3cc4cnc(NC5COC5)nc4n(CCCCO)c3=O)c(Cl)c2)n1` [Example I-50, 6-[2-Chloro-4-(6-methylpyrazin-2-yl)phenyl]-8-(4-hydroxybutyl)-2-(oxetan-3-ylamino)pyrido[2,3-d]pyrimidin-7-one], for which the Ki worked out at 45.6 nM.

On to `Cc1cccc(-c2ccc(-c3cc4cnc(NC5COC5)nc4n(C[C@H]4CC[C@H](N)CC4)c3=O)c(Cl)c2)n1` [Example I-33, 8-(((1r,4r)-4-aminocyclohexyl)methyl)-6-(2-chloro-4-(6-methylpyridin-2-yl)phenyl)-2-(oxetan-3-ylamino)pyrido[2,3-d]pyrimidin-7(8H)-one], for which the Ki came out at 0.5 nM.

Consider `Cc1cncc(-c2ccc(-c3cc4cnc(NC5(C)COC5)nc4n(CCCC(N)=O)c3=O)c(Cl)c2)n1` [Example I-41, 4-[6-[2-Chloro-4-(6-methylpyrazin-2-yl)phenyl]-2-[(3-methyloxetan-3-yl)amino]-7-oxo-pyrido[2,3-d]pyrimidin-8-yl]butanamide], for which the Ki worked out at 31 nM.

Consider `CNc1ncc2cc(-c3ccc(-c4cccc(C)n4)cc3C)c(=O)n(CCC3CNCCO3)c2n1` (single isomer, unassigned) [Example I-110], for which the Ki is 3 nM.

Consider `CCNc1ncc2cc(-c3ccc(-c4cncc(C)n4)cc3Cl)c(=O)n(CCC3CCNC3)c2n1` (stereo not shown) [Example I-57, 6-(2-Chloro-4-(6-methylpyrazin-2-yl)phenyl)-2-(ethylamino)-8-(2-(pyrrolidin-3-yl)ethyl)pyrido[2,3-d]pyrimidin-7(8H)-one], for which the Ki was 4.1 nM.

As to `CCNc1ncc2cc(-c3ccc(-c4cccc(C)n4)cc3Cl)c(=O)n(CCS(=O)(=O)C3CNC3)c2n1` [Example I-160, 8-[2-(azetidin-3-ylsulfonyl)ethyl]-6-[2-chloro-4-(6-methyl-2-pyridyl)phenyl]-2-(ethylamino)pyrido[2,3-d]pyrimidin-7-one], the Ki is 10.3 nM.

With `Cc1cccc(-c2ccc(-c3cc4cnc(NC(C)C)nc4n(CCOCCN)c3=O)c(Cl)c2)n1` [Example I-60], the Ki amounted to 1.1 nM.

Take `CNc1ncc2cc(-c3ccc(-c4cccc(C)n4)cc3Cl)c(=O)n(CCC3CNCCS3(=O)=O)c2n1` (stereo not shown) [Example I-202, 6-[2-chloro-4-(6-methyl-2-pyridyl)phenyl]-8-[2-(1,1-dioxo-1 4-thiazinan-2-yl)ethyl]-2-(methylamino)pyrido[2,3-d]pyrimidin-7-one]: the Ki was determined as 7.1 nM.

On to `Cc1cccc(-c2ccc(-c3cc4cnc(N)nc4n(CCCN)c3=O)c(C)c2)n1` [Example I-72, 2-Amino-8-(3-aminopropyl)-6-[2-methyl-4-(6-methyl-2-pyridyl)phenyl]pyrido[2,3-d]pyrimidin-7-one], for which the Ki was found to be 21.1 nM.

In the case of `CNc1ncc2cc(-c3ccc(-c4cccc(C)n4)cc3Cl)c(=O)n(C[C@@H]3CN(C)CCO3)c2n1` [Example I-183, 6-[2-chloro-4-(6-methyl-2-pyridyl)phenyl]-2-(methylamino)-8-[[(2S)-4-methylmorpholin-2-yl]methyl]pyrido[2,3-d]pyrimidin-7-one], the Ki is 26.8 nM.

Turning to `CNc1ncc2cc(-c3ccc(-c4cccc(C)n4)cc3Cl)c(=O)n(C[C@H]3[C@@H]4CN(C)C[C@@H]43)c2n1` [Example I-176, 6-[2-chloro-4-(6-methyl-2-pyridyl)phenyl]-2-(methylamino)-8-[[(1R,5S)-3-methyl-3-azabicyclo[3.1.0]hexan-6-yl]methyl]pyrido[2,3-d]pyrimidin-7-one], the Ki was 11 nM.

Turning to `CCNc1ncc2cc(-c3ccc(-c4cccc(C)n4)cc3Cl)c(=O)n(CCOC3CNC3)c2n1` [Example I-30, 8-[2-(azetidin-3-yloxy)ethyl]-6-[2-chloro-4-(6-methyl-2-pyridyl)phenyl]-2-(ethylamino)pyrido[2,3-d]pyrimidin-7-one], the Ki is 9.9 nM.

Source of the values: patent US20150031674A1, “SERINE/THREONINE KINASE INHIBITORS” (GENENTECH, INC., priority 2013, published 2015).
